Read-outs that look alike come from different tables or passages of the source. Bridge positions count the residues as written; N and C are the ends. Square brackets hold non-standard residues; d marks the D form. Peptide text beside a SMILES is read from it. R8 = C=CCCCCCC[C@@](C)(N)C(=O)O; S5 = C=CCCC[C@](C)(N)C(=O)O; βAla = NCCC(=O)O
How the values were obtained:
[1] = Ex vivo protease stability in serum; type: in vitro ADME, mouse
Method: FIG. 5 To determine whether SAH-p53 peptides have increased proteolytic stability, the wild type p5314-29 peptide and SAH-p53-4 were exposed to serum ex vivo.
To assess the protease stability of the peptides, fluoresceinated peptides (2.5 μg) were incubated with fresh mouse serum (20 μL) at 37° C. for 0-24 hours. The level of intact fluoresceinated compound was determined by flash freezing the serum specimens in liquid nitrogen, lyophilization, extraction in 1:1 CH3CN:H2O containing 0.1% TFA, followed by HPLC-based quantitation using fluorescence detection at excitation/emission settings of 495/530 nm.

circular dichroism = conditions: water; pH 7.0; 20 °C; 10-50 uM
HDM2 = target: T1, HDM2 (Homo sapiens, UniProt Q00987); assay: Kd (nM)
T1 construct: Co-Immunoprecipitation of FITC-SAH-p53 Peptides and Endogenous HDM2; endogenous in cells; host or cells: SJSA-1 osteosarcoma cells
T1 sequence (Q00987 whole entry, looked up): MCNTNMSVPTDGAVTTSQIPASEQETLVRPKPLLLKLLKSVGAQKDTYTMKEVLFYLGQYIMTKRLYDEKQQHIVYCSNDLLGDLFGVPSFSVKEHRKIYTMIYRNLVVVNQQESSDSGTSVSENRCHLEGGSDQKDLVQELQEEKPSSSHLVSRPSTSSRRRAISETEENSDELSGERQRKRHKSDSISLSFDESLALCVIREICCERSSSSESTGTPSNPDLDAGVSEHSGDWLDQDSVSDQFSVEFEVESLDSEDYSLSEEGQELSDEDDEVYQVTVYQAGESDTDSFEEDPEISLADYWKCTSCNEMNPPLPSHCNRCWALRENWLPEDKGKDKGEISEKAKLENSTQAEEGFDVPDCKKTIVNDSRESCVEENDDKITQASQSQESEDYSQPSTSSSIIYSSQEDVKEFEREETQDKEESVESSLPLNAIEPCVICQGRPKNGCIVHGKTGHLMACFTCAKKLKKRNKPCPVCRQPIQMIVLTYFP
Description: The patent's description of the figure: FIGS. 1A-1F Synthesis, Sequence, and Biochemical Analysis of SAH-p53 Peptides. FIG. 1A Non-natural amino acids were synthesized as described and cross-linked by ruthenium-catalyzed ring-closing olefin metathesis. […] Note: UAH-p53-8 is the “unstapled” form of SAH-p53-8.

HDM217-125 = target: T2, HDM217-125 (Homo sapiens, UniProt Q00987); assay: Fluorescence polarization binding assay, FITC-peptides and HDM217-125; conditions: FITC-labeled derivatives
T2 construct: plasmid encoding HDM217-125 with an N-terminal hexahistidine tag; hexahistidine tag (N, cleaved yes); thrombin cleavage site (N, cleaved yes); made in house; host or cells: Escherichia coli BL21 (DE3)
T2 sequence (Q00987 17-125 limits assumed): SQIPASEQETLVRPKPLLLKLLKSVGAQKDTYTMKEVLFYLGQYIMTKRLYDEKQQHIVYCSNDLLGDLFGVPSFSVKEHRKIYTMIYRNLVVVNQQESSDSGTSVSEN
Method: (§1) FIG. 10 Fluorescence polarization binding assay of stapled peptides. Fluoresceinated peptides (5 nM) were incubated with recombinant HDM217-125 (25 pM-10 μM) at room temperature. Binding activity was measured by fluorescence polarization, and Kd values were obtained by […].
as §1, with “A fluorescence” for “FIG. 10 Fluorescence”, “assay was used to assess binding” for “assay”, “peptides to HDM217-125.” for “stapled peptides.”, “KD” for “Kd”
Purified HDM217-125 was prepared as follows. […]
and a thrombin cleavage site were cultured in kanamycin- and chloramphenicol-containing Luria Broth and induced with 0.1 mM isopropyl β-D-thiogalactoside (IPTG). […] Purity of the protein was assessed by SDS-PAGE, FPLC and MALDI-TOF and determined to be >90%. […]
Fluoresceinated compounds (LT=5-25 nM) were incubated with HDM217-125 in binding assay buffer (140 mM NaCl, 50 mM, Tris pH 8.0) at room temperature. Binding activity was measured by fluorescence polarization on a Perkin-Elmer LS50B luminescence spectrophotometer using a cuvette containing a stirbar or a Spectramax M5 Microplate Reader (Molecular Devices). Kd values were determined by nonlinear regression analysis of dose response curves using Prism software 4.0 Graphpad. […]

RKO cells = assay: Annexin V binding as an indicator of apoptosis, RKO cells; type: cell-based; conditions: 24 hours
Description: FIG. 9 Annexin V binding as an indicator of apoptosis.

SJSA-1 cells [2] = tested on: SJSA-1 cells
Description: After washing with PBS, the cells were fixed in 4% paraformaldehyde, washed with PBS, and treated with DAPI-containing (nuclear counterstain) Vectashield mounting medium (Vector), coverslipped and imaged by confocal microscopy (BioRad 1024 or Nikon E800).

SJSA-1 cells [3] = type: cell-based; conditions: 24 h
Method: SJSA-1 osteosarcoma cells (4×10^5 cells per well) were incubated in 96-well plates and treated with p53 peptides in serum-free media for 4 hours, followed by serum replacement and additional incubation for 20 hours. Cell viability was assayed by addition of CellTiter-Glo™ bioluminescence reagent (Promega) and reading luminescence in a Spectramax M5 microplate reader (Molecular Devices). The extent of apoptosis was measured through the detection of caspase-3 activity by exposing the cells to a caspase-3-specific substrate (Oncogene). Fluorescence as a result of substrate cleavage was measured in a Spectramax M5 microplate reader (Molecular Devices).

SJSA-1 cells [4] = type: cell-based; conditions: 24 h; remark: listed apart in the source
Method: The cells were then exposed to a caspase-3 specific substrate (Ac-DEVD-AMC ('DEVD' disclosed as SEQ ID NO: 7)). Fluorescence as a result of cleavage was measured in a microplate reader. To determine the specificity of the activity, certain peptides were incubated alongside DEVD-CHO ('DEVD' disclosed as SEQ ID NO: 7), a substrate known to inhibit caspase-3 specifically. The effect of various peptides on caspase-3 activation was examined as follows. […] The cells were then exposed to a caspase-3 specific substrate. Fluorescence as a result of cleavage was measured in a microplate reader. To determine the specificity of the activity, certain peptides were incubated alongside DEVD-CHO ('DEVD' disclosed as SEQ ID NO: 7), a substrate known to inhibit caspase-3 specifically. […] Cell viability was assayed by addition of CellTiter-GloTM bioluminescence reagent (Promega) and reading luminescence in a Spectramax M5 microplate reader (Molecular Devices). The extent of apoptosis was measured through the detection of caspase-3 activity by exposing the cells to a caspase-3-specific substrate (Oncogene). Fluorescence as a result of substrate cleavage was measured in a Spectramax M5 microplate reader (Molecular Devices).

Native HDM2 = target: T3, Native HDM2 (Homo sapiens, UniProt Q00987); assay: Co-immunoprecipitation of FITC-SAH-p53 peptides and endogenous HDM2; type: cell-based; conditions: SJSA-1 cells
T3 construct: Co-Immunoprecipitation of FITC-SAH-p53 Peptides and Endogenous HDM2; endogenous in cells; host or cells: SJSA-1 osteosarcoma cells
T3 sequence (Q00987 whole entry): as the sequence (Q00987 whole entry, looked up) above
Method: FIG. 8 SJSA-1 cells were incubated with FITC-peptides followed by lysis and anti-FITC pull down.
SJSA-1 osteosarcoma cells (1×10^6) were treated with FITC-p53 peptides (15 μM) in serum-free media for 4 hours, followed by serum replacement and additional 8 hour incubation. The cells were thoroughly washed with serum-containing media and PBS and exposed to lysis buffer (50 mM Tris pH 7.6, 150 mM NaCl, 1% Triton-X100, 1 mM PMSF, 1 U mL^−1 benzonase nuclease [EMD Biosciences] and complete protease inhibitor tablet [Roche]) at room temperature. All subsequent steps were all performed at 4° C. The extracts were centrifuged, and the supernatants were incubated with protein A/G sepharose (50 μL 50% bead slurry per 0.5 mL lysatcs; Santa Cruz Biotechnology). The pre-cleared supernatants (500 μL) were collected after centrifugation, incubated with 10 μL of goat-anti-FITC antibody (AbCam) for 1.5 h followed by protein A/G sepharose for an additional 1.5 hours. The immunoprecipitation reactions were pelleted and washed three times with lysis buffer. The precipitated proteins were suspended in SDS-containing loading buffer, boiled, and the supernatants were processed by SDS-PAGE on 4-12% Bis-Tris gels (Invitrogen). The proteins were blotted into Immobilon-P membranes (Millipore). […]

Row | Compound | helicity (circular dichroism) | Kd (HDM2) | cellular fluorescence (SJSA-1 cells [2]) | also measured
1 | CC(=O)NCCC(=O)N[C@@H](CC(C)C)C(=O)N[C@@H](CO)C(=O)N[C@@H](CCC(N)=O)C(=O)N[C@@H](CCC(=O)O)C(=O)N[C@H](C(=O)N[C@@H](Cc1ccccc1)C(=O)N[C@]1(C)CCCCCCC=CCCC[C@@](C)(C(=O)N[C@@H](CCC(=O)O)C(=O)N[C@@H](CC(N)=O)C(N)=O)NC(=O)[C@H](CC(C)C)NC(=O)[C@H](CC(C)C)NC(=O)[C@H](CCCCN)NC(=O)[C@H](Cc2c[nH]c3ccccc23)NC(=O)[C@H](CC(C)C)NC(=O)[C@H](CC(=O)O)NC1=O)[C@@H](C)O [SAH-p53-4] | 59% | 0.92 ± 0.11 nM |  | proteolytic stability [1]: improved proteolytic stability; serum half-life (t1/2) compared with unmodified wild type peptide ([1]; exposed to serum ex vivo): almost four times longer; HDM2 binding affinity (HDM217-125): subnanomolar
2 | CC(=O)NCCC(=O)N[C@@H](CC(C)C)C(=O)N[C@@H](CO)C(=O)N[C@@H](CCC(N)=O)C(=O)N[C@@H](CCC(N)=O)C(=O)N[C@H](C(=O)N[C@@H](Cc1ccccc1)C(=O)N[C@]1(C)CCCCCCC=CCCC[C@@](C)(C(=O)N[C@@H](CCC(N)=O)C(=O)N[C@@H](CC(N)=O)C(N)=O)NC(=O)[C@H](CC(C)C)NC(=O)[C@H](CC(C)C)NC(=O)[C@H](CCCNC(=N)N)NC(=O)[C@H](Cc2c[nH]c3ccccc23)NC(=O)[C@H](CC(C)C)NC(=O)[C@H](CC(N)=O)NC1=O)[C@@H](C)O [SAH-p53-6] (Ac-[βAla]LSQQTF[R8]NLWRLL[S5]QN-NH2; staple 8-15) | 14% | 56 ± 11 nM |  | apoptosis induction (annexin V, FACS) (RKO cells): caused significant apoptosis
3 | CC(=O)NCCC(=O)N[C@@H](CCC(N)=O)C(=O)N[C@@H](CO)C(=O)N[C@@H](CCC(N)=O)C(=O)N[C@@H](CCC(N)=O)C(=O)N[C@H](C(=O)N[C@@H](Cc1ccccc1)C(=O)N[C@]1(C)CCCCCCC=CCCC[C@@](C)(C(=O)N[C@@H](CCC(N)=O)C(=O)N[C@@H](CC(N)=O)C(N)=O)NC(=O)[C@H](CC(C)C)NC(=O)[C@H](CC(C)C)NC(=O)[C@H](CCCCN)NC(=O)[C@H](Cc2c[nH]c3ccccc23)NC(=O)[C@H](CC(C)C)NC(=O)[C@H](CC(N)=O)NC1=O)[C@@H](C)O [SAH-p53-7] (Ac-[βAla]QSQQTF[R8]NLWKLL[S5]QN-NH2; staple 8-15) | 36% | 50 ± 10 nM |  | 
4 | CC(=O)NCCC(=O)N[C@@H](CCC(N)=O)C(=O)N[C@@H](CO)C(=O)N[C@@H](CCC(N)=O)C(=O)N[C@@H](CCC(N)=O)C(=O)N[C@H](C(=O)N[C@@H](C)C(=O)N[C@]1(C)CCCCCCC=CCCC[C@@](C)(C(=O)N[C@@H](CCC(N)=O)C(=O)N[C@@H](CC(N)=O)C(N)=O)NC(=O)[C@H](CC(C)C)NC(=O)[C@H](CC(C)C)NC(=O)[C@H](CCCNC(=N)N)NC(=O)[C@H](Cc2c[nH]c3ccccc23)NC(=O)[C@H](CC(C)C)NC(=O)[C@H](CC(N)=O)NC1=O)[C@@H](C)O [SAH-p53-8F19A] (Ac-[βAla]QSQQTA[R8]NLWRLL[S5]QN-NH2; staple 8-15; N-terminus and C-terminus assumed) | 39% | > 4000 nM | Cellular fluorescence was observed | 
5 | CC(=O)NCCC(=O)N[C@@H](CCC(N)=O)C(=O)N[C@@H](CO)C(=O)N[C@@H](CCC(N)=O)C(=O)N[C@@H](CCC(N)=O)C(=O)N[C@H](C(=O)N[C@@H](Cc1ccccc1)C(=O)N[C@]1(C)CCCCCCC=CCCC[C@@](C)(C(=O)N[C@@H](CCC(N)=O)C(=O)N[C@@H](CC(N)=O)C(N)=O)NC(=O)[C@H](CC(C)C)NC(=O)[C@H](CC(C)C)NC(=O)[C@H](CCCNC(=N)N)NC(=O)[C@H](Cc2c[nH]c3ccccc23)NC(=O)[C@H](CC(C)C)NC(=O)[C@H](CC(N)=O)NC1=O)[C@@H](C)O [SAH-p53-8] | 85% | 55 ± 11 nM | Cellular fluorescence was observed | EC50 (SJSA-1 cells [3]): 8800 nM; EC50 (SJSA-1 cells [4]): 5800 nM
6 | FITC-SAH-p53-8: N-terminally fluoresceinated SAH-p53-8 |  |  |  | co-immunoprecipitation of native HDM2 (anti-FITC pull down) (Native HDM2): co-immunoprecipitated

Reference: patent US9527896B2, “Stabilized p53 peptides and uses thereof” (DANA-FARBER CANCER INSTITUTE, INC., priority 2007, dated 2016)
